The text below walks through data of patent US7045138B2, “Composition for mitigation of insects and/or mollusca” (American Natural Technology Sciences, Inc., priority 2000, dated 2006).

The test deals with Fire Ants. The experiment in a line: Fire ant mound field tests of bait/borate formulations. Type of test: in vivo, Solenopsis invicta. As to the method:
The following components were tested either alone or in combinations for their ability to attract Fire Ants: • 1. Cow manure dropping in an infested area; • 2. Pelletized cow manure; • 3. Milk; • 4. Powdered, fresh and pelletized whey; • 5. Sugar solutions of varying concentrations; • 6. Raw fruit and vegetables of various kinds and concentrates; • 7. Various soft drinks containing sugar; • 8. Bacon and other raw meats; • 9. Vegetable and animal oils, both in liquid or solid; • 10. Dog and cat foods in bags, cans, or packaged in some other manner; • 11. Corn or other vegetable products in the form of meal, syrup, cracked, particles and flakes and other particles; • 12. Wheat and rice as bleached and unbleached, flower or granules; • 13. Millet seeds whole and crushed; • 14. Sunflower seeds whole, crushed and with various vegetable oils added; • 15. Microcapsules of whey and other materials, made to hold various, foods, etc.; and • 16. Capsules made of various vegetable water, sugar, starches, proteins, etc. that contain the bait and/or borates and/or DE.
Mounds were selected of varying sizes measured in diameter: • 1. Small mound (1 inch to 6 inches) • 2. Medium mound (6 inches to 3.0 feet) • 3. Large mound (3.0 feet and larger) • 4. Control
When possible, isolated mounds were selected.
The formulations were tested individually at different sites: • 1. Standard was one level teaspoon for a small mound, two for a medium mound and three or more for a large mound; and • 2. Volume vs. weight was noted.
The following data was collected for each site: • 1. Location • 2. Data and time of application • 3. Observation are conducted at: • a. One hour; • b. Four hours; • c. Twelve hours; • d. One day; • e. Two days; • f. Four days; • g. Eight days; • h. Sixteen days; and • i. Intermittent observations based upon climatic conditions. • 4. Weather data collected include: • a. Temperature; • b. Humidity; • c. Rainfall (time of day and extent); and • d. Wind speed and direction • 5. General observations
The time of application is preferably near evening (5 p.m. or later) or early morning (5 a.m. to 9 a.m.).

On to calcium borate, for which the performance result (5% substituted for the DOT, with whey) is “superior performance”.

Regarding Disodium octoborate tetrahydrate [DOT], the degree of control result (DOT combined with whey bait) was “high degree of control”. Also, where the note is “incorporated with the baits tested”, the “acceptance by the Fire Ants” value is “readily accepted”. Moreover, where the note is “preliminary data”, the “acceptable formulation level for control into the second generation” value was approximately 1.0% and the “acceptable formulation level for first generation control” value is ~0.05 % of the formulation.
